A word on the GI50: it is the concentration giving 50% growth inhibition. As a reminder, the TGI is the concentration giving total growth inhibition.

“And” between values parts separate entries of the source, which are not always exact repeats. Equal entries are not always repeated.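 Tested at 5 concentrations; 48 h exposure; 96-well plates; endpoints linearly interpolated, else capped at highest concentration. Here, GI50 denotes the concentration required for 50% inhibition of growth. TGI: total growth inhibition.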

The subject of this test is MDA-MB-468 breast. Put plainly: DTP human tumour cell line panel, 48 h.
Turning to `CCn1c(-c2nonc2N)nc2c(C#CC(C)(C)O)nc(OCCNC)cc21`, the GI50 is 3.32 µM and the TGI came out at 10.4 µM.
As for `CCOc1cc(/C=N\Nc2nnc(C)n2N)c(C)cc1N(CCCl)CCCl`, the GI50 was 0.321 µM and the TGI is 2.23 µM.
`COc1ccc2cc(-c3c(-c4ccncc4)nc(-c4ccc(S(C)(=O)=O)cc4C)n3C)ccc2c1`: the GI50 is 3.02 µM and the total growth inhibition concentration (TGI) worked out at 14.5 µM.
For `COc1ccc(Cn2cc3c(c2)-c2oncc2CC3)cc1`, the GI50 is 3.2 µM and the TGI is over 100 µM.
Taken in the same sequence, the figures for `COC(=O)C1CCc2sc3ncnc(Nc4cn[nH]c4C(=O)Nc4ccc(CN5CCN(C)CC5)cc4)c3c21` (centres undefined) were 1.42 µM and over 100 µM.
For `C=CC(=O)Nc1cc2c(Nc3ccc(F)c(Cl)c3)ncnc2cc1OCCCN1CCOCC1`, the GI50 was < 0.01 µM and 0.00238 µM; the TGI is 0.194 µM and 0.101 µM.
Regarding `COc1ccc(N2C(=O)[C@H]3CC(C)c4c([nH]c5ccccc45)[C@H]3C2=O)cc1` (some centres undefined), the GI50 was 3.63 µM and the TGI came out at 54.1 µM.
On to `COc1cc(/C=C2\C(=O)Nc3ccc(N(C)C)cc32)cc(OC)c1OC`, for which the GI50 was 3.25 µM and the TGI is 27.2 µM.
For `COc1cc(C(=O)Nc2cc3c(cc2Oc2cc(C)cc(C)c2)C(=O)N(C)[C@@H](CC(=O)N(C)O)C(=O)N3)c(Br)c(OC)c1OC`, the GI50 is under 0.00333 µM and the TGI is under 0.00333 µM.
Take `Cn1c2c(c3ccc(Cl)c(Cl)c31)C(C#N)C1(CCNCC1)NC2=O` (centres undefined): the GI50 was 1.63 µM and the TGI was 4.29 µM.
For `COc1cc2ncnc(Nc3ccc(F)c(Cl)c3)c2cc1NC(=O)/C=C/CN1CCCCC1`, the GI50 was under 0.01 µM and the total growth inhibition concentration (TGI) came out at 0.00538 µM.
Taken in the same sequence, the figures for `CCCOc1ccc2nc(NC(=O)OC)[nH]c2c1` were 0.274 µM and over 100 µM.
Taken in the same sequence, the figures for `C=C1C(=O)O[C@H]2[C@H]1CC/C(COC(=O)c1cc3cc(Cl)ccc3[nH]1)=C\CC[C@@]1(C)O[C@@H]21` were 1.89 µM and 4.07 µM.
In the case of `COc1ccc(C2=NN(C=O)C(c3cccc(Nc4ccnc5cc(Cl)ccc45)c3)C2)cc1` (centres undefined), the concentration for 50% growth inhibition (GI50) is 0.417 µM and the total growth inhibition concentration (TGI) worked out at 3.48 µM.
The matching figures for `O=C(O)c1ccc2c(c1)CCCC(c1ccc(Cl)cc1Cl)=C2c1ccc(O[C@H]2CCN(CCCF)C2)cc1`: 12 µM and 26.9 µM.
`Cc1c(C(=O)NCCN2CCOCC2)cn2ncnc(Oc3ccc(NC(=O)Nc4ccc(Cl)c(C(F)(F)F)c4)cc3)c12`: the GI50 is 1.52 µM and the TGI was found to be 3.45 µM.
As for `COc1ccc2[nH]c(O)c(C(=Nc3ccc(N(C)C(=O)CN4CCN(C)CC4)cc3)c3ccccc3)c2c1`, the GI50 is 2.6 µM and the TGI was 6.13 µM.
`CCCCCCCCCCCCCCCCCC1=NCCN1C(=O)OCCO`: the GI50 is 1.68 µM and the TGI amounted to 3.21 µM.
Turning to `COc1cc(-c2n/c(=C\c3c(O)[nH]c4ccc(Cl)cc34)cc3c2=Nc2ccccc2-3)ccc1F`, the GI50 was 1.81 µM and the TGI was determined as 3.81 µM.
For `CCOc1cccc(/C=N/NC(=O)C(=O)Nc2cccc(C(F)(F)F)c2)c1O`, the GI50 is 2.05 µM and the TGI worked out at 15.8 µM.
For `NC(=O)c1cc2c3ccccc3ccn2c1-c1ccccc1`, the GI50 was 0.273 µM and the total growth inhibition concentration (TGI) came to 15.2 µM.
Regarding `COc1ccccc1/C=C/C(=O)c1ccccc1`, the GI50 was 7.23 µM and the TGI is 28 µM.
As for `Cc1nc2sccn2c1-c1csc(Nc2cccc(Cl)c2C)n1`, the GI50 is 1.05 µM and the concentration for total growth inhibition (TGI) is 11 µM.
As for `Fc1cc2[nH]ncc2c2c3c(c(-c4cn[nH]c4C(F)(F)F)nc12)C1CCC3C1` (centres undefined), the GI50 was 1.1 µM and the TGI was found to be 3.98 µM.
Consider `CNCCn1c(=O)c2cc(OC)c(OC)cc2c2ccc3cc4c(cc3c21)OCO4`, for which the GI50 was 0.0743 µM and the TGI was determined as 0.244 µM.
Turning to `COc1cc2c(=O)n(CCN)c3c4cc5c(cc4ccc3c2cc1OC)OCO5`, the GI50 was 0.219 µM and the TGI is 0.881 µM.
For `Cc1cc(Cl)ccc1Nc1nc(C(F)(F)F)ccc1C(=O)N/N=C/c1ccc([N+](=O)[O-])cc1`, the GI50 was 1.16 µM and the TGI was 5.16 µM.
As for `CC[PH+](CC)CC.O=COC1OC([S-])C(OC=O)C(OC=O)C1OC=O.[Au+]` (centres undefined), the GI50 was 0.659 µM and the TGI is 2.31 µM.
Regarding `Cc1sc2nc3c4ccccc4c(NCCCN(C)C)nn3c(=O)c2c1C`, the GI50 was 1.27 µM and the TGI turned out to be 2.8 µM.
Take `CCn1c2ccc(O)cc2c2c(C)c3c[n+](C)ccc3c(C)c21`: the concentration for 50% growth inhibition (GI50) is 0.284 µM and the TGI was determined as 2.6 µM.
On to `CN1CCN(Cc2ccc(NC(=O)c3cncc(C#Cc4cnc5ccc(NCCO)nn45)c3)cc2C(F)(F)F)CC1`, for which the GI50 is 0.227 µM and the concentration for total growth inhibition (TGI) was determined as 1.02 µM.
The matching figures for `CN1C(=O)N(C)C2C1NN=c1s/c(=C\c3ccc(F)cc3)c(=O)n12` (centres undefined): 0.366 µM and 4.07 µM.
With `Cc1ccc(-c2csc(NC(=O)CN3CCN(c4cc5c(cc4F)c(=O)c(C(=O)O)cn5C4CC4)CC3)n2)cc1`, the GI50 was 0.697 µM and the total growth inhibition concentration (TGI) turned out to be 6.53 µM.
Taken in the same sequence, the figures for `CC1(C)CC[C@]23CC[C@]4(C)[C@H](CC[C@@H]5[C@@]6(C)CC[C@H](N)C(C)(C)[C@@H]6CC[C@]54C)[C@H]2[C@H]1OC3` were 1.7 µM and 3.25 µM.
Taken in the same sequence, the figures for `C/C=C1\NC(=O)[C@H]2CSSCCC=C[C@H](CC(=O)N[C@H](C(C)C)C(=O)N2)OC(=O)[C@H](C(C)C)NC1=O` were under 0.01 µM and under 0.0122 µM.
`Cc1cc2c(cc1C)N(C(=O)CCl)CCN2C(=O)CCl`: the GI50 was 0.199 µM and the TGI was 0.457 µM.
Turning to `COc1ccc(-c2ccc(-c3ccc(C(=N)N)cn3)o2)cc1`, the GI50 was 2.04 µM and the TGI worked out at 5.69 µM.

The record behind these values is PubChem BioAssay (NCI).
